Here are results for three molecules from patent US20100168406A1, “USE OF GINSENOSIDE Rb2 MONOMER IN THE MANUFACTURE OF MEDICAMENTS FOR THROMBOLYSIS” (priority 2006, published 2010).

Test [1] relates to arteriovenous shunt thrombus in rats. In words: Arteriovenous shunt thrombosis method, in vivo thrombolytic effect. The settings on record: femoral vein injection given twice. The arrangement: species or system Winstar rats. The procedure: Arteriovenous shunt thrombosis method was applied in Winstar rats to observe the inhibition of thrombosis in rats. Under intraperitoneal anesthesia with mebumal sodium, a polyethylene tube penetrated by a silk thread was placed between the right common carotid artery and the left external jugular vein, to allow blood flow through the thread for 15 min. Upon formation of a thrombus, the test agents were injected into femoral vein, and again after an interval of 15 min, both of the same dosage. 45 min post administration, the silk thread was removed rapidly and weighed. Subtraction of the weight of silk thread from the total weight yielded the weight of the thrombus (mg). The thrombus was dried in an oven at a temperature of 60° C. for 4 hours, so as to give the dry weight (mg) of the thrombus.

In test [2] the test system is blood clots. In words: In vitro thrombolytic effect on rat blood clots (6 h, 37° C.). Type of test: biochemical, rats. The protocol: Rats used in the study were anaesthetized by urethane. Blood samples were taken from abdominal aorta, placed in plastic tubes, and were removed after 24 hours of coagulation. The blood clot was semi-blotted with filter paper and cut into pieces. 90 to 120 mg blood clots were accurately weighed and put into test tubes, to which NS, an Rb2 solution of 200 μg/ml, 100 μg/ml, or 50 μg/ml, or a urokinase solution of 50 U/ml, in a volume of 1 ml was added, respectively, and were then placed into a thermostatic horizontal shaking bath at a temperature of 37° C. and with a shaking frequency of 90 times/min for 6 hours. The undissolved blood clots were removed and weighed after semi-blotting with filter paper. The relative thrombolysis rate was calculated. SPSS 10.0 statistical software was used to perform t test among groups.

In test [3] the test system is thrombi. In words: In vitro thrombolytic effect on capillary thrombi (24 h, 37° C.). Type of test: biochemical, Wistar rats. The procedure:
Nine female Wistar rats were used. Blood samples were taken from postorbital venous plexus using hard neutral glass capillary, 4 capillaries for each rat and 36 capillaries in total. The capillaries which contained the blood samples were left over night and the thrombi were then removed. The 4 thrombus samples of each rat were placed into test tubes containing 1 ml NS solution, 1000 U urokinase in 1 ml NS solution, 1 mg Rb2 (80%) in 1 ml NS solution and 1 mg Rb2 (98%) in 1 ml NS solution, respectively. All the test tubes were placed into a water bath at a temperature of 37° C. with shaking at an interval of 30 minutes. 24 hours later, the solutions were decanted, the remaining thrombi were weighed and the thrombolysis rate was calculated. Thrombolysis rate=(starting weight of thrombus−remaining weight of thrombus)/starting weight of thrombus×100%

Test [4] concerns KunMing mice. In words: Auricle microcirculation in mice with Isoprel-induced acute myocardial necrosis. The test is classed as in vivo. The settings on record: 40 mg/kg intraperitoneal Day 1-7, Isoprel 7.5 mg/kg sc Day 5 and 6, 30 min after last dose. The protocol: (§1) 20 KunMing mice, 10 male and 10 female, were randomly divided into the control group and the administration group. The control group received intraperitoneal injection of physiological saline from Day 1 to Day 7 and subcutaneous injection of Isoprel at a dosage of 0.3 ml (7.5 mg/kg) on Day 5 and Day 6. The ginsenoside monomer Rb2 administration group received intraperitoneal injection of ginsenoside monomer Rb2 at a dosage of 40 mg/kg for 4 consecutive days; subcutaneous injection of Isoprel at a dosage of 0.3 ml (7.5 mg/kg) followed by intraperitoneal injection of ginsenoside monomer Rb2 at a dosage of 40 mg/kg on Day 5; intraperitoneal injection of ginsenoside monomer Rb2 at a dosage of 40 mg/kg followed by subcutaneous injection of Isoprel on Day 6. On Day 7, 30 min after intraperitoneal injection of ginsenoside monomer Rb2, the auricle microcirculation was determined. The data obtained from the study were subjected to t-test between groups.

The test system of test [5] is KunMing mice. In words: Degree of cardiomyopathy (HE staining of heart) in Isoprel-induced acute myocardial necrosis. The settings on record: 40 mg/kg intraperitoneal, Isoprel-treated mice, of 10 animals. The test is classed as in vivo. The protocol: as §1
After the determination of auricle microcirculation, animals were sacrificed and heart samples were removed for HE staining for microscopic examination. The samples were classified according to the grading standards for cardiomyopathy.

For test [6], the system named is mice. In words: Effect of Rb2 (~60%) on auricle microcirculation in mice. The test is classed as in vivo. The settings on record: 120 mg/10 ml/kg intragastric for 3 days, 30 minutes after last administration. The procedure: 20 mice, 10 male and 10 female, were randomly divided into the control group and the administration group. Animals in the administration group received intragastric administration of Rb2 at 120 mg/10 ml/kg for 3 days. Animals in the control group were given water of the same volume. The calibers, flow rate and flow pattern of V3 grade arteriole and venule were determined 30 minutes after the last administration. The data obtained from the study was subjected to t-test between groups.

Test [7] deals with Wistar rats. As to the kind of experiment: Reperfusion injury after bilateral common carotid artery clamping, morphological examination of cerebral tissue. The test is classed as in vivo. The settings on record: Rb2 purity 90%, 10 mg/kg iv after reperfusion, brains examined 1 hour after administration. The protocol:
Male Wistar rats weighing 300±20 g were supplied by the Animal Office of Tianjin Institute of Pharmaceutical Research.
Rb2 was prepared with NS in a ratio of […] for intravenous injection in rats before use.
30 rats were randomly divided into 3 groups with 10 rats in each group. The sham operation group received (iv) physiological saline, the model group received (iv) physiological saline and the Rb2 (with a purity of 90%) group received (iv) 10 mg/kg. All groups were administered through intravenous injection after reperfusion injury.
The rats were weighed at the time of experiment. They were anaesthetized by urethane (lg/kg) through intraperitoneal injection, laid on their back on the operation table, and cut in the middle of the neck. The common carotid arteries on both sides were dissected and clamped using small-sized artery clamps. 2 hours later, the clamps were loosened to restore blood supply, and the animals were given intravenous administration immediately. The rats were decapitated 1 hour after the administration, the brains were removed and placed into a 10% formaldehyde solution for fixation, followed by morphological examination of the cerebral tissue.

In the case of `CC(C)=CCC[C@](C)(O[C@@H]1O[C@H](CO[C@@H]2OC[C@H](O)[C@H](O)[C@H]2O)[C@@H](O)[C@H](O)[C@H]1O)[C@H]1CC[C@]2(C)[C@@H]1[C@H](O)C[C@@H]1[C@@]3(C)CC[C@H](O[C@@H]4O[C@H](CO)[C@@H](O)[C@H](O)[C@H]4O[C@@H]4O[C@H](CO)[C@@H](O)[C@H](O)[C@H]4O)C(C)(C)[C@@H]3CC[C@]12C` [Rb2, ginsenoside Rb2], in test [1] (Rb2 purity 93.9%, 2.5 mg/kg), the “Dry weight of thrombus” value came to 8.50 ± 1.91 mg, the “Inhibition % (dry weight of thrombus)” value is on record as 15.59%, the “Inhibition % (wet weight of thrombus)” value was determined as 8.71% and the “Wet weight of thrombus” value worked out at 31.75 ± 8.54 mg. In addition, in test [1] (Rb2 purity 93.9%, 5 mg/kg), the “Dry weight of thrombus” value amounted to 6.60 ± 1.35 mg, the “Inhibition % (dry weight of thrombus)” value stood at 34.46%, the “Inhibition % (wet weight of thrombus)” value came out at 34.73% and the “Wet weight of thrombus” value was determined as 22.70 ± 4.94 mg. In test [1] (Rb2 purity 93.9%, 10 mg/kg), the “Dry weight of thrombus” value turned out to be 6.87 ± 1.73 mg, the “Inhibition % (dry weight of thrombus)” value is reported as 31.72%, the “Inhibition % (wet weight of thrombus)” value came to 23.43% and the “Wet weight of thrombus” value was 26.63 ± 5.04 mg. Further, in test [2] (50 μg/ml), the Relative thrombolysis % came to 27.4 ± 8.3 % and the “Weight of blood clot After lysis” value was found to be 78.9 ± 17.8 mg. In test [2] (100 μg/ml), the Relative thrombolysis % came out at 28.0 ± 9.1 % and the “Weight of blood clot After lysis” value is recorded as 81.4 ± 13.4 mg. For the same molecule, in test [2] (200 μg/ml), the Relative thrombolysis % worked out at 27.1 ± 9.1 % and the “Weight of blood clot After lysis” value was found to be 81.8 ± 13.4 mg. Further, the Thrombolysis rate % in test [3] (1 mg/ml in NS, listed as Ginsenoside monomer Rb2) is given as not below 70%. In test [4], the Blood flow velocity is recorded as 238 ± 22.59 um/s, the Caliber of artery is 39.08 ± 1.80 um and the Caliber of vein was 59.9 ± 3.58 um. In test [5], the “Degree of cardiomyopathy +++, number of animals” value stood at 1; the “Degree of cardiomyopathy ++, number of animals” value came out at 2; the “Degree of cardiomyopathy +, number of animals” value amounted to 3; the “Degree of cardiomyopathy −, number of animals” value is recorded as 4. Moreover, in test [6], the Input branch was 36.42 ± 0.81[…] um/s and the Output branch was 65.77 ± 3.14 um/s. The “Pathological changes of cerebral edema and cerebral ischemia vs model control group” value in test [7] is “alleviated remarkably”.

With `CC(C)=CCC[C@](C)(O[C@@H]1O[C@H](CO[C@@H]2OC[C@H](O)[C@H](O)[C@H]2O)[C@@H](O)[C@H](O)[C@H]1O)[C@H]1CC[C@]2(C)[C@@H]1[C@H](O)C[C@@H]1[C@@]3(C)CC[C@H](O[C@@H]4O[C@H](CO)[C@@H](O)[C@H](O)[C@H]4O[C@@H]4O[C@H](CO)[C@@H](O)[C@H](O)[C@H]4O)C(C)(C)[C@@H]3CC[C@]12C` [Rb2 (98%), ginsenoside Rb2], in test [3] (1 mg/ml in NS), the “Final weight of thrombus” value came out at 5.5 ± 3.2 mg and the Thrombolysis rate % was 71.5%.

With Urokinase [reference compound], in test [1] (5000 U (5000 U/kg)), the “Dry weight of thrombus” value is listed as 6.62 ± 1.85 mg, the “Inhibition % (dry weight of thrombus)” value is 34.26%, the “Inhibition % (wet weight of thrombus)” value is on record as 25.37% and the “Wet weight of thrombus” value is given as 25.37 ± 6.37 mg. In addition, in test [2] (50 U/ml), the Relative thrombolysis % was determined as 32.7 ± 10.0 % and the “Weight of blood clot After lysis” value is given as 73.8 ± 11.3 mg. In test [3] (1000 U/ml in NS), the “Final weight of thrombus” value was 0 mg and the Thrombolysis rate % came out at 100%.
